Results as given in ChEMBL document CHEMBL1201862, “PubChem BioAssay data set” (2004).
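Briefly, cells in 96-well plates were exposed to five compound concentrations for 48 h, and endpoints were estimated by linear interpolation. At the GI50, growth is halved.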 The source made the active and inactive calls. No stated cut-off is given here; in the data, active = GI50 up to about 1.1 µM and inactive = higher.

Legend:
Experiment in all cases: inhibition of tumour cell growth, NCI panel, 48 h
T47D = test system: T47D
RXF 393 = test system: RXF 393
SF-295 = test system: SF-295
HCT-116 = test system: HCT-116
EKVX = test system: EKVX
ACHN = test system: ACHN
NCI-H226 = test system: NCI-H226
MDA-N = test system: MDA-N
HOP-92 = test system: HOP-92
SK-MEL-28 = test system: SK-MEL-28
Malme-3M = test system: Malme-3M
U-251 = test system: U-251
MDA-MB-435 = test system: MDA-MB-435
M14 = test system: M14
PC-3 = test system: PC-3
SNB-19 = test system: SNB-19
OVCAR-3 = test system: OVCAR-3
K562 = test system: K562
A549 = test system: A549
LOX IMVI = test system: LOX IMVI

Measured: GI50

CN(C)C/C=C(/c1ccc(Br)cc1)c1cccnc1
inactive: T47D 58.7 µM | RXF 393 30.6 µM | SF-295 22.2 µM | HCT-116 71 µM | EKVX > 100 µM | ACHN > 100 µM | NCI-H226 > 100 µM | MDA-N 38.3 µM | HOP-92 64.6 µM | SK-MEL-28 17.9 µM | Malme-3M 20.2 µM | U-251 98.4 µM | MDA-MB-435 32.9 µM | M14 20.2 µM | PC-3 > 100 µM | SNB-19 > 100 µM | OVCAR-3 > 100 µM | K562 32.2 µM | A549 81.8 µM

Cc1ccc([N+](=O)[O-])cc1S(=O)(=O)Nc1ccc(C2=NNC(c3cccs3)C2)cc1 (stereo not given)
inactive: T47D 4.85 µM | RXF 393 13.6 µM | SF-295 6.67 µM | HCT-116 22.5 µM | EKVX 18.8 µM | LOX IMVI 28.7 µM | ACHN 20.7 µM | NCI-H226 49.7 µM | MDA-N 34.9 µM | HOP-92 60 µM | SK-MEL-28 48.5 µM | Malme-3M 23.4 µM | MDA-MB-435 35.6 µM | M14 25.5 µM | PC-3 33.3 µM | SNB-19 28.8 µM | OVCAR-3 12.6 µM | K562 17.4 µM | A549 22.9 µM

CC(NC(=O)Cc1ccccc1)NC(=O)C(C)C(=O)NCc1ccccc1 (stereo not given)
inactive: T47D > 100 µM | RXF 393 42.6 µM | SF-295 21.7 µM | HCT-116 > 100 µM | EKVX > 100 µM | ACHN 52.2 µM | NCI-H226 21.7 µM | MDA-N > 100 µM | HOP-92 31.4 µM | Malme-3M > 100 µM | U-251 50.6 µM | MDA-MB-435 > 100 µM | M14 > 100 µM | PC-3 > 100 µM | SNB-19 23.7 µM | K562 > 100 µM | A549 > 100 µM

CCOC(=O)/C(C#N)=C/c1ccnc2ccccc12
inactive: T47D > 100 µM | RXF 393 > 100 µM | SF-295 93.1 µM | HCT-116 2.19 µM | EKVX > 100 µM | LOX IMVI 15.6 µM | ACHN > 100 µM | NCI-H226 > 100 µM | MDA-N > 100 µM | HOP-92 40.2 µM | SK-MEL-28 88.5 µM | Malme-3M 37.1 µM | U-251 > 100 µM | MDA-MB-435 37.2 µM | M14 56.9 µM | PC-3 36.9 µM | SNB-19 81.7 µM | OVCAR-3 53.7 µM | A549 > 100 µM

NS(=O)(=O)c1ccc(NC(=S)NC=C2C(=O)c3ccccc3C2=O)cc1
inactive: T47D 30.8 µM | RXF 393 43.6 µM | SF-295 > 100 µM | HCT-116 > 100 µM | EKVX > 100 µM | LOX IMVI > 100 µM | ACHN > 100 µM | MDA-N > 100 µM | HOP-92 23.7 µM | SK-MEL-28 > 100 µM | Malme-3M > 100 µM | U-251 76.2 µM | MDA-MB-435 91.4 µM | M14 > 100 µM | PC-3 > 100 µM | SNB-19 > 100 µM | OVCAR-3 55.8 µM | K562 35.8 µM | A549 > 100 µM

NC(CCC(=O)c1ccccn1)C(=O)O (stereo not given)
inactive: T47D > 100 µM | RXF 393 > 100 µM | SF-295 > 100 µM | HCT-116 > 100 µM | EKVX > 100 µM | LOX IMVI > 100 µM | ACHN > 100 µM | NCI-H226 > 100 µM | MDA-N > 100 µM | HOP-92 > 100 µM | SK-MEL-28 > 100 µM | Malme-3M > 100 µM | U-251 > 100 µM | MDA-MB-435 > 100 µM | M14 > 100 µM | PC-3 > 100 µM | SNB-19 > 100 µM | OVCAR-3 > 100 µM | A549 > 100 µM

Cc1nc(-c2cc3cc(Cl)ccc3oc2=O)cc2c1c(=O)oc1ccc(Cl)cc12
inactive: T47D > 100 µM | RXF 393 > 100 µM | SF-295 > 100 µM | HCT-116 > 100 µM | EKVX > 100 µM | LOX IMVI > 100 µM | ACHN > 100 µM | NCI-H226 > 100 µM | MDA-N > 100 µM | HOP-92 > 100 µM | SK-MEL-28 > 100 µM | U-251 > 100 µM | MDA-MB-435 > 100 µM | M14 > 100 µM | PC-3 > 100 µM | SNB-19 > 100 µM | OVCAR-3 > 100 µM | K562 > 100 µM | A549 > 100 µM

O=C(Nc1ccc(Cl)cc1)NS(=O)(=O)c1c(-c2ccccc2)oc2ccccc2c1=O
inactive: T47D 48 µM | RXF 393 > 100 µM | SF-295 36.2 µM | HCT-116 92.7 µM | EKVX > 100 µM | LOX IMVI 9.25 µM | ACHN 27.1 µM | NCI-H226 > 100 µM | MDA-N 44.7 µM | HOP-92 89.3 µM | SK-MEL-28 > 100 µM | Malme-3M > 100 µM | U-251 58.2 µM | MDA-MB-435 75 µM | PC-3 56.8 µM | SNB-19 > 100 µM | K562 48 µM | A549 39 µM

O=c1c2c(-c3ccccc3)onc2n(-c2ccccc2)c(=O)n1-c1ccccc1
inactive: T47D > 100 µM | RXF 393 > 100 µM | SF-295 > 100 µM | HCT-116 > 100 µM | EKVX 20.3 µM | LOX IMVI > 100 µM | ACHN 31.2 µM | NCI-H226 26.1 µM | MDA-N > 100 µM | HOP-92 > 100 µM | Malme-3M 17.5 µM | U-251 > 100 µM | MDA-MB-435 > 100 µM | M14 17.1 µM | PC-3 18.6 µM | SNB-19 27.4 µM | OVCAR-3 15.1 µM | K562 > 100 µM | A549 > 100 µM

Nc1cc2nc(O)c(O)nc2cc1N
inactive: T47D > 100 µM | RXF 393 > 100 µM | SF-295 > 100 µM | HCT-116 > 100 µM | EKVX > 100 µM | LOX IMVI > 100 µM | ACHN > 100 µM | NCI-H226 > 100 µM | MDA-N > 100 µM | HOP-92 > 100 µM | SK-MEL-28 > 100 µM | Malme-3M > 100 µM | U-251 > 100 µM | MDA-MB-435 > 100 µM | PC-3 > 100 µM | SNB-19 > 100 µM | OVCAR-3 > 100 µM | K562 > 100 µM | A549 > 100 µM

CO[C@@H]1O[C@H](C(=O)c2ccccc2)[C@H]2OC(C)(C)O[C@@H]12
inactive: T47D > 100 µM | RXF 393 > 100 µM | SF-295 > 100 µM | HCT-116 75.3 µM | EKVX 86.5 µM | LOX IMVI > 100 µM | NCI-H226 > 100 µM | MDA-N > 100 µM | HOP-92 > 100 µM | U-251 > 100 µM | MDA-MB-435 85.3 µM | M14 > 100 µM | PC-3 > 100 µM | SNB-19 > 100 µM | OVCAR-3 > 100 µM | K562 > 100 µM

Cc1ccc(NC(=O)CC(=O)N2N=C(N3CCCCC3)CC2c2ccccc2)cc1 (stereo not given)
inactive: T47D > 100 µM | RXF 393 > 100 µM | SF-295 > 100 µM | HCT-116 > 100 µM | EKVX > 100 µM | LOX IMVI > 100 µM | ACHN > 100 µM | NCI-H226 > 100 µM | MDA-N > 100 µM | HOP-92 > 100 µM | SK-MEL-28 > 100 µM | Malme-3M > 100 µM | U-251 > 100 µM | MDA-MB-435 > 100 µM | M14 > 100 µM | PC-3 > 100 µM | SNB-19 > 100 µM | OVCAR-3 > 100 µM | A549 > 100 µM

CCN(CCCN(CC)C(=O)N[C@@H](Cc1ccccc1)C(=O)NC)C(=O)N[C@@H](Cc1ccccc1)C(=O)NC
inactive: T47D > 100 µM | RXF 393 > 100 µM | SF-295 > 100 µM | HCT-116 > 100 µM | EKVX > 100 µM | LOX IMVI > 100 µM | ACHN > 100 µM | NCI-H226 > 100 µM | MDA-N > 100 µM | HOP-92 > 100 µM | SK-MEL-28 > 100 µM | Malme-3M > 100 µM | U-251 > 100 µM | MDA-MB-435 > 100 µM | M14 > 100 µM | PC-3 > 100 µM | SNB-19 > 100 µM | OVCAR-3 > 100 µM | A549 > 100 µM

CCOC(=O)[C@@H]1C[C@@H]1c1ccc(O)c(O)c1
inactive: T47D 16 µM | RXF 393 21.1 µM | SF-295 59.7 µM | HCT-116 16.3 µM | EKVX 38.6 µM | ACHN 42.8 µM | NCI-H226 22.5 µM | MDA-N 17.1 µM | HOP-92 36.7 µM | SK-MEL-28 30.8 µM | Malme-3M 49.2 µM | U-251 72.1 µM | MDA-MB-435 16.9 µM | M14 11 µM | PC-3 12.7 µM | SNB-19 49 µM | OVCAR-3 16.6 µM | K562 13.8 µM | A549 29.4 µM

Nc1cc2c3c(c1)Oc1cc(N)cc4c1C3c1c(cc(N)cc1O4)O2
inactive: T47D 20.7 µM | RXF 393 12.3 µM | SF-295 26.2 µM | HCT-116 21.7 µM | EKVX 11.6 µM | LOX IMVI 17.9 µM | ACHN 22 µM | NCI-H226 3.07 µM | MDA-N 17.8 µM | HOP-92 57.5 µM | SK-MEL-28 47.3 µM | Malme-3M 6.32 µM | U-251 43.1 µM | MDA-MB-435 29 µM | M14 26.9 µM | PC-3 26.1 µM | SNB-19 37.5 µM | OVCAR-3 20.2 µM | K562 30.8 µM | A549 32.5 µM
